Experimental data taken from patent US9676773B2, “Azaindole derivative” (TAIHO PHARMACEUTICAL CO., LTD., priority 2014, dated 2017).

Tests used:
[1] = biological target: T1, purified recombinant human JAK1 protein (Homo sapiens, UniProt P23458); test: Measurement of JAK1 kinase-inhibitory activity; type: biochemical; details: substrate peptide 1 μM, ATP 75 M (so in the source), 25° C., 120 minutes
T1 construct: purchased Carna Biosciences, Inc
Method: 1) Measurement of JAK1 Kinase-Inhibitory Activity
The activity of the compound of the present invention to inhibit the activity of JAK1 kinase was measured.
(§1) Among materials for the measurement of this inhibitory activity, a substrate peptide and a kinase protein were acquired as follows. As such a substrate peptide, a substrate peptide for QSS Assist™ JAK1-MSA assay kit (Carna Biosciences, Inc.) was purchased. As such a kinase protein, a purified recombinant human JAK1 protein (Carna Biosciences, Inc.) was purchased.
The method for measuring the inhibitory activity is as follows. First, the compounds of the present invention were each dissolved in dimethyl sulfoxide (DMSO), and a serial dilution was then prepared by the use of DMSO. Subsequently, a serial dilution solution of the compound (the final concentration of DMSO upon a kinase reaction: 5.0%) or DMSO (final concentration: 5.0%) was mixed with a solution containing the substrate peptide (final concentration: 1 μM), magnesium chloride (final concentration: 5 mM) and ATP (final concentration: 75 µM) in a buffer for kinase reaction (20 mM HEPES (pH 7.5), 2 mM dithiothreitol and 0.01% Triton X-100). Thereafter, a JAK1 protein was further added to the mixed solution, and the obtained mixture was then incubated at 25° C. for 120 minutes to carry out a kinase reaction. To the reaction solution, EDTA was added to a final concentration of 30 mM, so as to terminate the reaction. Finally, with LabChip EZ Reader II (Perkin Elmer Corp.), an unphosphorylated substrate peptide (S) and a phosphorylated peptide (P) were subjected to microchannel capillary electrophoresis, so that the two peptides were separated from each other and were then detected. The amount of a phosphorylation reaction was obtained based on the heights of the peaks of S and P, and the concentration of the compound capable of inhibiting 50% of the phosphorylation reaction was defined as an IC50 value (nM).

[2] = biological target: T2, purified recombinant human JAK2 protein (Homo sapiens, UniProt O60674); test: Measurement of JAK2 kinase-inhibitory activity; type: biochemical; details: FL-Peptide 22 1 μM, ATP 10 μM, 25° C., 80 minutes
T2 construct: purchased Carna Biosciences, Inc
T2 sequence (O60674 whole entry): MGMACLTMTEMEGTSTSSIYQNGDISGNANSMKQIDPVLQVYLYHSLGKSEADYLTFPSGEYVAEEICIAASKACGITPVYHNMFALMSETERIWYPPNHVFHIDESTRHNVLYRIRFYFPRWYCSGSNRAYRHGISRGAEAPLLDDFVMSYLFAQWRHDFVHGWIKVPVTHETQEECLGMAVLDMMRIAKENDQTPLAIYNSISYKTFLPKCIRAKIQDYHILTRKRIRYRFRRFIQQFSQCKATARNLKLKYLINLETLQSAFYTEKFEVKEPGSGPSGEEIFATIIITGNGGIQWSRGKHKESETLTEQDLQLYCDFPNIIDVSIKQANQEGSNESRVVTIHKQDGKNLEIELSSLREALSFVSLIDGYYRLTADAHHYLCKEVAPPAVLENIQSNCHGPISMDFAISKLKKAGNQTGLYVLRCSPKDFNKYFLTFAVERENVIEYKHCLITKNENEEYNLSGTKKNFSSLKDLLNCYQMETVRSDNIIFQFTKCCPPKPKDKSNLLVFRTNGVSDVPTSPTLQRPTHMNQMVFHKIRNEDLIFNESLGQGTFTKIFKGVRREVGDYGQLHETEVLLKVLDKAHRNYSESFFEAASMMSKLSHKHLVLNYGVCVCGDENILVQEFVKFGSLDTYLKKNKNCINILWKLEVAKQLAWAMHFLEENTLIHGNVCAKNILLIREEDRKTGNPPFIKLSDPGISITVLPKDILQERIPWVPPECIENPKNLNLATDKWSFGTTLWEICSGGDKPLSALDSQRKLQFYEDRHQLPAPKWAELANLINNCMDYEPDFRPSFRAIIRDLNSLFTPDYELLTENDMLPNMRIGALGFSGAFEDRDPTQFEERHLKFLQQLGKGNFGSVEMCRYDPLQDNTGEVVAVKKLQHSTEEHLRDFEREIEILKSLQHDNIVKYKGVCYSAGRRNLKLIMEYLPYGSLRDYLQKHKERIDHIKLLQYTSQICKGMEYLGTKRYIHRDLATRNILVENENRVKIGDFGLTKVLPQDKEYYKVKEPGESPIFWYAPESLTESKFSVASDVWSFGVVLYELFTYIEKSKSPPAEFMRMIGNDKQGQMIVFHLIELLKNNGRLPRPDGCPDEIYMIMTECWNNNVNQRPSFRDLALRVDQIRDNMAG
Method: 2) Measurement of JAK2 Kinase-Inhibitory Activity
The activity of the compound of the present invention to inhibit the activity of JAK2 kinase was measured.
as §1, with “FL-Peptide 22 (Perkin Elmer Corp.)” for “a substrate peptide for QSS Assist™ JAK1-MSA assay kit (Carna Biosciences, Inc.)”, “JAK2” for “JAK1”
The method for measuring the inhibitory activity is as follows. First, a serial dilution of the compound of the present invention was prepared by the same method as that described in the above section regarding JAK1. This serial dilution solution (the final concentration of DMSO upon a kinase reaction: 5.0%) or DMSO (final concentration: 5.0%) was mixed with a solution containing the substrate peptide (final concentration: 1 μM), magnesium chloride (final concentration: 10 mM) and ATP (final concentration: 10 μM) in a buffer for kinase reaction (15 mM Tris (pH 7.5), 2 mM dithiothreitol and 0.01% Tween 20). Thereafter, a JAK2 protein was further added to the mixed solution, and the obtained mixture was then incubated at 25° C. for 80 minutes to carry out a kinase reaction. To the reaction solution, EDTA was added to a final concentration of 30 mM, so as to terminate the reaction. After termination of the reaction, the measurement and the data analysis were carried out by the same methods as those described in the above section regarding JAK1.

T1 sequence (P23458 whole entry): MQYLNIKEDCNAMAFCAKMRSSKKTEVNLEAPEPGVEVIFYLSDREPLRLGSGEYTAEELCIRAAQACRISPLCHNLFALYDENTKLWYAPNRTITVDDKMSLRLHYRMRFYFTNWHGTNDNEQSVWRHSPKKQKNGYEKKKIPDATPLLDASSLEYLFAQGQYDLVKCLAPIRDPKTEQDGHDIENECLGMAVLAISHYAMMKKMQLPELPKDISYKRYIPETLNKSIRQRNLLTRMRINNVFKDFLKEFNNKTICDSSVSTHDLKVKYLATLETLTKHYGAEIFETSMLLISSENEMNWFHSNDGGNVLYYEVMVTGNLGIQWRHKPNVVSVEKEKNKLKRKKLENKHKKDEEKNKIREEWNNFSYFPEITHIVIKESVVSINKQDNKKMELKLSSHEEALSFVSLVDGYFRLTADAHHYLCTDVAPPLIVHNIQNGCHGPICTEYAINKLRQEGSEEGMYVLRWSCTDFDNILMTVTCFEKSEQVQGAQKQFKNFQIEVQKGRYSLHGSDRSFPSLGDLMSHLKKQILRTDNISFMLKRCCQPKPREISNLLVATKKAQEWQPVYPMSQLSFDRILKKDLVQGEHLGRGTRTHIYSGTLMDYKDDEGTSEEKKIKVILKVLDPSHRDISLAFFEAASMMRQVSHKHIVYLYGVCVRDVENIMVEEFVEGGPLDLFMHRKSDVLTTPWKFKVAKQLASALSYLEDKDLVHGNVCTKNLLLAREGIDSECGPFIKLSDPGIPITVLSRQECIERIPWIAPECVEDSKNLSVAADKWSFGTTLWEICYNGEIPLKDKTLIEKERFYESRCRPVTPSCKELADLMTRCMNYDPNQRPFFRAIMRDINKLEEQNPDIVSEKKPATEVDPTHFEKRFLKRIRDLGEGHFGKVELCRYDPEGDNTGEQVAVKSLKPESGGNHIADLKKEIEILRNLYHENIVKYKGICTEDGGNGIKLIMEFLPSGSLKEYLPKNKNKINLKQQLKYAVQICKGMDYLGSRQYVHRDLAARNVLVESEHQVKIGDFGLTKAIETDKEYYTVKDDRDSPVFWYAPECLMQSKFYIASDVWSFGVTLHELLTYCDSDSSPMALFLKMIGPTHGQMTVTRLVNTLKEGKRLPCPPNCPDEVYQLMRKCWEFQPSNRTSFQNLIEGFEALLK

| IC50 [1] [µM] | IC50 [2] [µM] | SMILES |
| --- | --- | --- |
| 1.2 | 0.45 | C1=C(c2ccnc3[nH]ccc23)CCCC1 [Comparative Example 1, reference compound] |
| 2.2 | 0.54 | C1=C(c2ccnc3[nH]ccc23)CCC1 [Comparative Example 2, 4-(Cyclopent-1-en-1-yl)-1H-pyrrolo[2,3-b]pyridine, reference compound] |
| 2.9 | 1.6 | Cc1nc(-c2c[nH]c3ncc(-c4ccccc4)cc23)cs1 [Comparative Example 3, 2-Methyl-4-(5-phenyl-1H-pyrrolo[2,3-b]pyridin-3-yl)thiazole, reference compound] |
| 0.74 | 0.45 | C=CC(=O)NC1CCC=C(c2ccnc3[nH]cc(-c4ccccc4)c23)C1 (stereo not drawn) [Compound 1, N-(3-(3-Phenyl-1H-pyrrolo[2,3-b]pyridin-4-yl)cyclohex-3-en-1-yl)acrylamide] |
| 1.9 | 0.57 | C=CC(=O)NC1CCC=C(c2ccnc3[nH]cc(-c4cn[nH]c4)c23)C1 (stereo not drawn) [Compound 3, N-(3-(3-(1H-Pyrazol-4-yl)-1H-pyrrolo[2,3-b]pyridin-4-yl)cyclohex-3-en-1-yl)acrylamide] |
| 1.1 | 0.6 | C=CC(=O)NC1CCC=C(c2ccnc3[nH]cc(-c4cccnc4OC)c23)C1 (stereo not drawn) [Compound 6, N-(3-(3-(2-Methoxypyridin-3-yl)-1H-pyrrolo[2,3-b]pyridin-4-yl)cyclohex-3-en-1-yl)acrylamide] |
| 1.9 | 0.25 | C=CC(=O)NC1CCC=C(c2ccnc3[nH]cc(-c4ccc(CO)o4)c23)C1 (stereo not drawn) [Compound 10, N-(3-(3-(5-(Hydroxymethyl)furan-2-yl)-1H-pyrrolo[2,3-b]pyridin-4-yl)cyclohex-3-en-1-yl)acrylamide] |
| 0.78 | 0.5 | C=CC(=O)NC1CCC=C(c2ccnc3[nH]cc(-c4ccco4)c23)C1 (stereo not drawn) [Compound 12, N-(3-(3-(Furan-2-yl)-1H-pyrrolo[2,3-b]pyridin-4-yl)cyclohex-3-en-1-yl)acrylamide] |
| 3.2 | 0.59 | C=CC(=O)NC1CCC=C(c2ccnc3[nH]cc(-c4cc(CO)co4)c23)C1 (stereo not drawn) [Compound 14, N-(3-(3-(4-(Hydroxymethyl)furan-2-yl)-1H-pyrrolo[2,3-b]pyridin-4-yl)cyclohex-3-en-1-yl)acrylamide] |
| 2.4 | 0.97 | C=CC(=O)NC1CCC=C(c2ccnc3[nH]cc(C4=CCOC4)c23)C1 (stereo not drawn) [Compound 34, N-(3-(3-(2,5-Dihydrofuran-3-yl)-1H-pyrrolo[2,3-b]pyridin-4-yl)cyclohex-3-en-1-yl)acrylamide] |
| 4.4 | 2.4 | C=CC(=O)NC1CCC=C(c2ccnc3[nH]cc(-c4ccc(F)nc4)c23)C1 (stereo not drawn) [Compound 37, N-(3-(3-(6-Fluoropyridin-3-yl)-1H-pyrrolo[2,3-b]pyridin-4-yl)cyclohex-3-en-1-yl)acrylamide] |
| 2.4 | 0.71 | C=CC(=O)NC1CCC=C(c2ccnc3[nH]cc(-c4cnco4)c23)C1 (stereo not drawn) [Compound 48, N-(3-(3-(Oxazol-5-yl)-1H-pyrrolo[2,3-b]pyridin-4-yl)cyclohex-3-en-1-yl)acrylamide] |
| 3.4 | 0.98 | C=CC(=O)NC1CCC=C(c2ccnc3[nH]cc(-c4nnco4)c23)C1 (stereo not drawn) [Compound 49, N-(3-(3-(1,3,4-Oxadiazol-2-yl)-1H-pyrrolo[2,3-b]pyridin-4-yl)cyclohex-3-en-1-yl)acrylamide] |
| 3.9 | 0.99 | C=CC(=O)NC1CCC=C(c2ccnc3[nH]cc(-c4nn(C)c(=O)o4)c23)C1 (stereo not drawn) [Compound 53, N-(3-(3-(4-Methyl-5-oxo-4,5-dihydro-1,3,4-oxadiazol-2-yl)-1H-pyrrolo[2,3-b]pyridin-4-yl)cyclohex-3-en-1-yl)acrylamide] |
| 6.9 | 2.1 | C=CC(=O)NC1CCC=C(c2ccnc3[nH]cc(-c4nncs4)c23)C1 (stereo not drawn) [Compound 54] |
| 1 | 0.26 | C=CC(=O)N[C@H]1CCC=C(c2ccnc3[nH]cc(-c4nnco4)c23)C1 [Compound 55, (S)—N-(3-(3-(1,3,4-Oxadiazol-2-yl)-1H-pyrrolo[2,3-b]pyridin-4-yl)cyclohex-3-en-1-yl)acrylamide] |
| 3.5 | 0.88 | C=CC(=O)NC1CC=C(c2ccnc3[nH]cc(-c4nnco4)c23)C1 (stereo not drawn) [Compound 57, N-(3-(3-(1,3,4-Oxadiazol-2-yl)-1H-pyrrolo[2,3-b]pyridin-4-yl)cyclopent-3-en-1-yl)acrylamide] |
| 1.5 | 0.43 | C=CC(=O)N[C@H]1CCC=C(c2ccnc3[nH]cc(-c4ccno4)c23)C1 [Compound 59] |
